# Experimental data published in PMC2263054, “Functional evolution of the vitamin D and pregnane X receptors” (BMC Evolutionary Biology, 2007).
# Like-named read-outs stand apart in the source and are kept apart here.
# Legend:
# Xenopus laevis VDR = molecular target: T1, Xenopus laevis VDR (Xenopus laevis, UniProt O13124); experiment: luciferase reporter transactivation assay in HepG2-NTCP cells, GAL4/xlVDR LBD chimera with tk-UAS-Luc; format: cell-based
# T1 sequence (O13124 90-422): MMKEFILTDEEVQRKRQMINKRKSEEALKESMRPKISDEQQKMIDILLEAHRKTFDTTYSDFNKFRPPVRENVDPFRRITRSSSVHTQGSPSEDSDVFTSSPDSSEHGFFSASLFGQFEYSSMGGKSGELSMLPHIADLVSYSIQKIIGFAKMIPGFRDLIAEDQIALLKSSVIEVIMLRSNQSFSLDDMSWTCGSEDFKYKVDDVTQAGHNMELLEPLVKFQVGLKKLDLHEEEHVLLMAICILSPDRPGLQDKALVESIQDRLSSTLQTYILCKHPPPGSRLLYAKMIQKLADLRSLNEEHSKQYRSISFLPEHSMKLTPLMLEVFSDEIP
# Zebrafish VDR = molecular target: T2, Zebrafish VDR (Danio rerio, UniProt Q9PTN2); experiment: luciferase reporter transactivation assay in HepG2-NTCP cells, GAL4/zfVDR LBD chimera with tk-UAS-Luc; format: cell-based
# T2 sequence (Q9PTN2 121-453): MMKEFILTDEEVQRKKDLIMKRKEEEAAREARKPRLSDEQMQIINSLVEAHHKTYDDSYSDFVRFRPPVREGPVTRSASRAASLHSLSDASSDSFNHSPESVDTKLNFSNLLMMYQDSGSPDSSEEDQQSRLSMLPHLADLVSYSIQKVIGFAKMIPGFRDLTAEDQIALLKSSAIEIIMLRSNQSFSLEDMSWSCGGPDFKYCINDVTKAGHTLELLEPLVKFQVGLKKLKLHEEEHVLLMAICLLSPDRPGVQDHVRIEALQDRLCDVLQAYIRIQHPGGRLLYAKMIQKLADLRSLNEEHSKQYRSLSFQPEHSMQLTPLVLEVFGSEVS
# Sea lamprey VDR = molecular target: T3, Sea lamprey VDR (Petromyzon marinus, UniProt Q7ZZY9); format: cell-based
# T3 sequence (Q7ZZY9 92-406): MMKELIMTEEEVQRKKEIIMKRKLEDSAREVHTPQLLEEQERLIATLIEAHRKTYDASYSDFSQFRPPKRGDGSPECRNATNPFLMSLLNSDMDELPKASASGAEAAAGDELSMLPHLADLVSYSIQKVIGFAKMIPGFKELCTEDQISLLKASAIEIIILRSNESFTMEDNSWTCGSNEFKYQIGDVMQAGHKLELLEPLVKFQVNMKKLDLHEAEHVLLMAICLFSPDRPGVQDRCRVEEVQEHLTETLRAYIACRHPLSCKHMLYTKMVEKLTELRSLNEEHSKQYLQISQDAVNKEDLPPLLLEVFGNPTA
# [1] = tested on: ethoxyresorufin O-deethylase (EROD) activity (CYP1A-like activity); experiment: in vitro
# Method: (§1) The cells are cultured at 26°C in ambient atmosphere.
# [2] = tested on: testosterone 6β-hydroxylation activity (CYP3A-like activity); experiment: in vitro; conditions: zebrafish
# Method: as §1
# (§2) 100 μL of sample, calibration standard, or quality material standard were pipetted into separate microcentrifuge tubes and mixed with 100 μL of methanol. Samples were vortexed and centrifuged at 13,000 rpm for 4 min. The supernatant was then injected into the HPLC.
# (§3) The flow rate was 1.2 mL/min and total run time was 25 min.
# zebrafish PXR [3] = tested on: zebrafish PXR
# [4] = tested on: testosterone 6β-hydroxylation; experiment: testosterone hydroxylation (HPLC) in sea lamprey primary hepatocytes; format: cell-based; conditions: concentration ranges per compound
# Method: as §2, §3
# [5] = tested on: flurbiprofen 4-hydroxylation activity (CYP2C-like activity)
# EROD activity = experiment: EROD assay in sea lamprey primary hepatocytes; conditions: 24–48 hr exposure
# β-actin = experiment: zebrafish in vivo liver transcription, semi-quantitative RT-PCR: β-actin; conditions: ip, 15 mg/kg, 48 h
# Method: (§4) Adult zebrafish were purchased from a commercial fish supplier and acclimatized for at least two-weeks in 20 L tanks with flow-through freshwater at 22°C. A single dose of 15 mg/kg of 5α-cyprinol, 5β-cyprinol 27-sulfate, 5α-scymnol or 5β-scymnol-27 sulfate, dissolved in saline, was injected intraperitoneally. A control group was injected with saline. After 48 hr, the animals were decapitated and livers of three fish (n = 5 each group) were removed, pooled and weighed, totalizing 15 fish per group. Fish were not fed throughout the experimental period. […].
# (§5) To study the transcription of CYP3C1, ABCB5, PXR, GAPDH and β-actin genes in zebrafish, initial fragments of these genes were identified (Genbank: AW202769, Genbank: BQ284593, Genbank: AAM22215, Genbank: BC083506, Genbank: AF057040, respectively). The PCR primers for CYP3C1 were designed using MacVector Software and primers for MDR1 were designed using Primer 3 Software (Whitehead Institute for Biomedical Research; [75]). Primer pairs for amplifying CYP3C1 fragment were 5'-[…]-3' (sense) and 5'-[…]-3' (antisense) and for amplifying ABCB5 were 5'-[…]-3' (sense) and 5'-[…]-3' (antisense). The PCR primers for PXR were 5'-[…]-3' (sense) and 5'-[…]-3' (antisense), for amplifying GAPDH were 5'-[…]-3' (sense) and 5' […] 3' (antisense) and for β-actin were 5'-[…]-3' (sense) and 5'-[…]-3' (antisense). RNA was isolated using Trizol (Invitrogen) according to manufacturer's instructions. Purity and concentration of RNA of each sample were verified at 260 nm. The RNA integrity was checked by non-denaturing gel electrophoresis using 1 μg of total RNA in each sample.
# (§6) Two micrograms of total RNA were reversed transcribed using Ominiscript RT Kit (Qiagen, Valencia, CA, USA). cDNA concentration was checked at 260 nm, and the amount adjusted to 1 μg to perform semi-quantitative RT-PCR. The expected size of the PXR, Cyp3C1, abcb5, GAPDH and β-actin fragments were 577, 477, 218, 234 and 550 bp, respectively. Biotools DNA polymerase (Biotools B&M Labs, S.A., Madrid, Spain) kit was used for the PCR reaction using a thermocycler Personal Mastercycler (Eppendörf) with the following PCR program: 5 cycles of 94°C for 5 s, 72°C for 35 s; 5 cycles of 94°C for 5 s, 70°C for 10 s, 72°C for 35 s; and 23, 24, 35, 15 and 24 cycles (PXR, Cyp3C1, abcb5, GAPDH and β-actin, respectively) of 94°C for 5 s, 61, 54, 48, 49 and 61°C for 10 s (PXR, Cyp3C1, abcb5, GAPDH and β-actin, respectively), and 72°C for 35 s. The PXR, CYP3C1, ABCB5 and GAPDH transcript levels were quantified using Gel-Quant™ (Multiplexed Biotechologies) and β-actin was used to normalize the data. The Shapiro-Wilk W test was used to evaluate normality. When data were parametric the analysis was performed using Student t test; otherwise Mann Whitney U test was applied. […]
# [6] = tested on: glyceraldehyde 3-phosphate dehydrogenase (GAPDH); experiment: zebrafish in vivo liver transcription, semi-quantitative RT-PCR: GAPDH; conditions: 15 mg/kg intraperitoneally, single dose, 48 hr
# Method: Adult zebrafish were purchased from a commercial fish supplier and acclimatized for at least two-weeks in 20 L tanks with flow-through freshwater at 22°C. A single dose of 15 mg/kg of 5α-cyprinol, 5β-cyprinol 27-sulfate, 5α-scymnol or 5β-scymnol-27 sulfate, dissolved in saline, was injected intraperitoneally. A control group was injected with saline. After 48 hr, the animals were decapitated and livers of three fish (n = 5 each group) were removed, pooled and weighed, totalizing 15 fish per group. Fish were not fed throughout the experimental period.
# as §5, with “The PCR primers for CYP3C1 were designed using MacVector Software and primers for MDR1 were designed using Primer 3 Software (Whitehead Institute for Biomedical Research; [75]).” left out, “Purity and concentration of RNA of each sample were verified at 260 nm.” left out
# The PXR, CYP3C1, ABCB5 and GAPDH transcript levels were quantified using Gel-Quant™ (Multiplexed Biotechologies) and β-actin was used to normalize the data. The Shapiro-Wilk W test was used to evaluate normality. When data were parametric the analysis was performed using Student t test; otherwise Mann Whitney U test was applied.
# [7] = tested on: MDR1 (tentatively classified as ABCB5 in zebrafish); experiment: zebrafish in vivo liver transcription, semi-quantitative RT-PCR: MDR1; conditions: ip, 15 mg/kg, 48 h
# Method: as §4, §5, §6
# PXR = experiment: zebrafish in vivo liver transcription, semi-quantitative RT-PCR: PXR; conditions: ip, 15 mg/kg, 48 h
# Method: as §4, §5, §6
# CYP3C1 = experiment: zebrafish in vivo liver transcription, semi-quantitative RT-PCR: CYP3C1; conditions: ip, 15 mg/kg, 48 h
# Method: as §4, §5, §6
# zebrafish PXR [8] = conditions: cited from earlier work
# [9] = screening for activators, at least three concentrations of each drug
Structure (SMILES),Effect on Xenopus laevis VDR (Xenopus laevis VDR),Effect on zebrafish VDR (Zebrafish VDR),Effect on sea lamprey VDR (Sea lamprey VDR),effect on EROD activity [1],EC50 [2] [µM],activation of recombinant zebrafish PXR (zebrafish PXR [3]),effect on testosterone 6β-hydroxylation [4],maximal flurbiprofen 4-hydroxylation activities [5],effect on EROD activity (EROD activity),Effect on Xenopus laevis VDR (Xenopus laevis VDR; [9]),Effect on zebrafish VDR (Zebrafish VDR; [9]),Effect on sea lamprey VDR (Sea lamprey VDR; [9]),liver transcription of β-actin (β-actin) [arbitrary units],liver transcription of GAPDH [6],liver transcription of MDR1 (ABCB5) [7],liver transcription of PXR (PXR),liver transcription of CYP3C1 (CYP3C1),activity at recombinant zebrafish PXR (zebrafish PXR [8])
CCC1(c2ccccc2)C(=O)NC(=O)NC1=O [Phenobarbital],No effect,No effect,No effect,found not to affect EROD activity,928 ± 109,all activate recombinant zebrafish PXR,None of these compounds produced significant increases in testosterone 6β-hydroxylation,greater than 50 nmol/min/mg protein,did not alter EROD activity,,,,,,,,,
"C[C@H](CCC(O)C(CO)CO)[C@H]1CC[C@H]2[C@@H]3[C@H](O)C[C@@H]4C[C@H](O)CC[C@]4(C)[C@H]3C[C@H](O)[C@]12C (stereo partly drawn) [5β-scymnol, 5β-cholestan-3α,7α,12α,24,26,27-hexol]",,,,,,,,,,No effect,No effect,No effect,62.2 ± 21.8,1.17 ± 0.58 arbitrary units normalized to β-actin,1.08 ± 0.17 arbitrary units normalized to β-actin,0.92 ± 0.38 arbitrary units normalized to β-actin,1.17 ± 0.50 arbitrary units normalized to β-actin,both inactive at recombinant zebrafish PXR
